Drawing on patent publication US8518931B2, “Compounds and compositions as kinase inhibitors” (IRM LLC, priority 2008, dated 2013), this text covers IC50 for 49 compounds.

The target in the assay is T1, NPM-ALK (Homo sapiens, UniProt Q9UM73).
T1 construct: nucleophosmin (NPM, NPM1; human P06748) fusion partner; expressed in transfected cells; host or cells: murine BaF3 cells (DSMZ), transfected with pCIneo (Promega) coding for NPM-ALK and selected with G418; the other entry of the earlier key: Npm1 (Q61937, Nucleophosmin)
T1 sequence (Q9UM73 with tags, fused parts or gaps): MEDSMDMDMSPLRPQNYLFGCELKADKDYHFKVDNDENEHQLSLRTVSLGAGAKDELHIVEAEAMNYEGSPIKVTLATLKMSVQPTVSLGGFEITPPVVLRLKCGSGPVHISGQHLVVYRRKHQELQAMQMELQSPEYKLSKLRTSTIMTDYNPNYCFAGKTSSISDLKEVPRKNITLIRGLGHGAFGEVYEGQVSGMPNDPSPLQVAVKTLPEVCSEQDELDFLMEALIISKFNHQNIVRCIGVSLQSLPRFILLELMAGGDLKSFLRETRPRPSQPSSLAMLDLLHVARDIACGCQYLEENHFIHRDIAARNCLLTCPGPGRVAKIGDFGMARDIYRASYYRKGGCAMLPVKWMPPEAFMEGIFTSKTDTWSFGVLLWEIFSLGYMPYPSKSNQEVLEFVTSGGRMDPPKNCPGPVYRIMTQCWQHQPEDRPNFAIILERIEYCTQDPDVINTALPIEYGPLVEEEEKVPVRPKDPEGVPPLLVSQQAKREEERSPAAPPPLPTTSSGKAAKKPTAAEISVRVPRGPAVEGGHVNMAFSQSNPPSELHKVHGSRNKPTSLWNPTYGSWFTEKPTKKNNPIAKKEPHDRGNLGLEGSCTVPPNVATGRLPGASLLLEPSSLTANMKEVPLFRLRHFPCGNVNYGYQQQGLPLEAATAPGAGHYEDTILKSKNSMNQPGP
The assay can be described thus: NPM-ALK BaF3 assay (growth inhibition of BaF3-NPM-ALK cells). The class given is cell-based. The settings on record: human NPM-ALK overexpressing murine BaF3 cells. An excerpt:
The expression of NPM-ALK may be achieved by transfecting the BaF3 cell line with an expression vector pClneo™ (Promega Corp., Madison Wis., USA) coding for NPM-ALK and subsequent selection of G418 resistant cells. Non-transfected BaF3 cells depend on IL-3 for cell survival. In contrast, NPM-ALK expressing BaF3 cells (named BaF3-NPM-ALK hereinafter) can proliferate in the absence of IL-3 because they obtain proliferative signal through NPM-ALK kinase. Putative inhibitors of the NPM-ALK kinase therefore abolish the growth signal and may result in antiproliferative activity. The antiproliferative activity of putative inhibitors of the NPM-ALK kinase can however be overcome by addition of IL-3, which provides growth signals through an NPM-ALK independent mechanism. An analogous cell system using FLT3 kinase has also been described (see, E Weisberg et al. Cancer Cell; 1, 433-443 (2002)).
The inhibitory activity of the compounds of the invention may be determined as follows. In general, BaF3-NPM-ALK cells (15,000/microtitre plate well) are transferred to 96-well microtitre plates. Test compounds dissolved in dimethyl sulfoxide (DMSO) are added in a series of concentrations (dilution series) in such a manner that the final concentration of DMSO is not greater than 1% (v/v). After the addition, the plates are incubated for two days during which the control cultures without test compound are able to undergo two cell-division cycles. The growth of the BaF3-NPM-ALK cells is measured by means of YOPRO™ staining [T Idziorek et al. J. Immunol. Methods; 185: 249-258 (1995)]: 25 μl of lysis buffer comprising 20 mM sodium citrate, pH 4.0, 26.8 mM sodium chloride, 0.4% NP40, 20 mM EDTA and […] to each well. Cell lysis is completed within 60 min at room temperature and total amount of YOPRO™ bound to DNA is determined by measurement using the Cytofluor II 96-well reader (PerSeptive Biosystems) with the following settings: Excitation (nm) 485/20 and Emission (nm) 530/25.
IC50 values may be determined by a computer-aided system using the formula: IC50=[(ABStest−ABSstart)/(ABScontrol−ABSstart)]×100·(ABS=absorption)
In general, compounds of the invention have IC50 values from 1 nM to 10 μM. In some examples, compounds of the invention have IC50 values from 0.01 μM to 5 μM. In other examples, compounds of the invention have IC50 values from 0.01 μM to 1 μM, or more particularly from 1 nM to 1 μM.
Table 1 describes representative compounds of the invention, prepared following the procedures described above. IC50 values are as measured in an NPM-ALK BaF3 assay.
Compound `Cc1cc(Nc2nc(Nc3ccccc3S(=O)(=O)C(C)C)n3nccc3n2)c(OC(C)C)cc1C1CCN(C)CC1` [Ex 1, N2-(2-isopropoxy-5-methyl-4-(1-methylpiperidin-4-yl)phenyl)-N4-(2-(isopropylsulfonyl)phenyl)pyrazolo[1,5-a][1,3,5]triazine-2,4-diamine] gave an IC50 of 115 nM.
The result for `COc1cc(C2CCN(C(=O)CN(C)C)CC2)c(C)cc1Nc1nc(Nc2ccccc2S(=O)(=O)C(C)C)n2nccc2n1` [Ex 2] reads 11 nM.
Turning to `COc1cc(C2CCN(C)CC2)c(C)cc1Nc1nc(Nc2ccccc2S(=O)(=O)C(C)C)n2nccc2n1` [Ex 3], it took 19 nM to reach half-maximal inhibition (IC50).
As for `COc1cc(C2CCNCC2)c(C)cc1Nc1nc(Nc2ccccc2S(=O)(=O)C(C)C)n2nccc2n1` [Ex 4], the IC50 came out at 38 nM.
`Cc1cc(CN2CCC(c3cc(OC(C)C)c(Nc4nc(Nc5ccccc5S(=O)(=O)C(C)C)n5nccc5n4)cc3C)CC2)[nH]n1` [Ex 5] had a half-maximal inhibitory concentration (IC50) of 140 nM.
`Cc1cc(Nc2nc(Nc3ccccc3S(=O)(=O)C(C)C)n3nccc3n2)c(OC(C)C)cc1C1CCN(Cc2cnn(C)c2)CC1` [Ex 6]: inhibition was half-maximal at 80 nM (IC50).
In the case of `COc1cc(C2CCN(CCS(C)(=O)=O)CC2)c(C)cc1Nc1nc(Nc2ccccc2S(=O)(=O)C(C)C)n2nccc2n1` [Ex 7], it took 50 nM to reach half-maximal inhibition (IC50).
As for `COc1cc(C2CCN(CC3CC3)CC2)c(C)cc1Nc1nc(Nc2ccccc2S(=O)(=O)C(C)C)n2nccc2n1` [Ex 8], 43 nM corresponded to half-maximal inhibition (IC50).
The result for `COc1cc(C2CCOCC2)c(C)cc1Nc1nc(Nc2ccccc2S(=O)(=O)C(C)C)n2nccc2n1` [Ex 10] reads 138 nM.
The result for `Cc1cc(C2CCNCC2)c(Cl)cc1Nc1nc(Nc2ccccc2S(=O)(=O)C(C)C)n2nccc2n1` [Ex 11] reads 1400 nM; that for `CNC(=O)CN1CCC(c2cc(OC)c(Nc3nc(Nc4ccccc4S(=O)(=O)C(C)C)n4nccc4n3)cc2C)CC1` [Ex 12], 28 nM.
For the compound `COc1cc(C2CCN(CCC(N)=O)CC2)c(C)cc1Nc1nc(Nc2ccccc2S(=O)(=O)C(C)C)n2nccc2n1` [Ex 13], the IC50 was found to be 15 nM.
The figure for `COc1cc(C2CCN(C(=O)CN3CCCCC3)CC2)c(C)cc1Nc1nc(Nc2ccccc2S(=O)(=O)C(C)C)n2nccc2n1` [Ex 14] is 26 nM.
The result for `COc1cc(C2CCN(C(=O)CN3CCCC3)CC2)c(C)cc1Nc1nc(Nc2ccccc2S(=O)(=O)C(C)C)n2nccc2n1` [Ex 15] reads 31 nM.
`CNCC(=O)N1CCC(c2cc(OC)c(Nc3nc(Nc4ccccc4S(=O)(=O)C(C)C)n4nccc4n3)cc2C)CC1` [Ex 17] had an IC50 of 22 nM.
The figure for `COc1cc(C2CCN(C(=O)C3(N)CC3)CC2)c(C)cc1Nc1nc(Nc2ccccc2S(=O)(=O)C(C)C)n2nccc2n1` [Ex 18] is 39 nM; for `CNCCC(=O)N1CCC(c2cc(OC)c(Nc3nc(Nc4ccccc4S(=O)(=O)C(C)C)n4nccc4n3)cc2C)CC1` [Ex 19] it is 68 nM.
The figure for `COc1cc(C2CCN(C(=O)CN3CCC3)CC2)c(C)cc1Nc1nc(Nc2ccccc2S(=O)(=O)C(C)C)n2nccc2n1` [Ex 20] is 26 nM; for `COc1cc(C2CCN(C(=O)CN3C[C@@H](O)[C@H](O)C3)CC2)c(C)cc1Nc1nc(Nc2ccccc2S(=O)(=O)C(C)C)n2nccc2n1` [Ex 21] it is 286 nM.
The result for `CCNC1(C(=O)N2CCC(c3cc(OC)c(Nc4nc(Nc5ccccc5S(=O)(=O)C(C)C)n5nccc5n4)cc3C)CC2)CC1` [Ex 22] reads 23 nM.
With `COc1cc(C2CCN(CC(N)=O)CC2)c(C)cc1Nc1nc(Nc2ccccc2S(=O)(=O)C(C)C)n2nccc2n1` [Ex 23], the IC50 amounted to 16 nM.
The figure for `CN[C@@H](C)C(=O)N1CCC(c2cc(OC)c(Nc3nc(Nc4ccccc4S(=O)(=O)C(C)C)n4nccc4n3)cc2C)CC1` [Ex 24] is 21 nM; for `COc1cc(C2CCN(C(=O)CCN(C)C)CC2)c(C)cc1Nc1nc(Nc2ccccc2S(=O)(=O)C(C)C)n2nccc2n1` [Ex 25] it is 22 nM.
The figure for `CNC1(C(=O)N2CCC(c3cc(OC)c(Nc4nc(Nc5ccccc5S(=O)(=O)C(C)C)n5nccc5n4)cc3C)CC2)CC1` [Ex 26] is 25 nM; for `CNC(C)(C)C(=O)N1CCC(c2cc(OC)c(Nc3nc(Nc4ccccc4S(=O)(=O)C(C)C)n4nccc4n3)cc2C)CC1` [Ex 27] it is 44 nM.
`COc1cc(C2CCN(C(=O)C3CCCCN3)CC2)c(C)cc1Nc1nc(Nc2ccccc2S(=O)(=O)C(C)C)n2nccc2n1` (stereo not shown) [Ex 29] showed a half-inhibitory concentration (IC50) of 54 nM.
Turning to `COc1cc(C2CCN(C(=O)C3CCCN3)CC2)c(C)cc1Nc1nc(Nc2ccccc2S(=O)(=O)C(C)C)n2nccc2n1` (stereo not shown) [Ex 31], the IC50 worked out at 36 nM.
For `COc1cc(C2CCN(C(=O)C3COCCN3)CC2)c(C)cc1Nc1nc(Nc2ccccc2S(=O)(=O)C(C)C)n2nccc2n1` (stereo not shown) [Ex 32], the IC50 came to 29 nM.
The figure for `COc1cc(C2CCN(C(=O)C3CCCN3C)CC2)c(C)cc1Nc1nc(Nc2ccccc2S(=O)(=O)C(C)C)n2nccc2n1` (stereo not shown) [Ex 34] is 25 nM; for `CC(C)S(=O)(=O)c1ccccc1Nc1nc(Nc2ccc(C3CCNCC3)cc2)nc2ccnn12` [Ex 37] it is 130 nM.
Compound `CC(C)S(=O)(=O)c1ccccc1Nc1nc(Nc2ccc3c(c2)CN(CCS(C)(=O)=O)CC3)nc2ccnn12` [Ex 39] showed an IC50 of 464 nM.
The result for `CC(C)S(=O)(=O)c1ccccc1Nc1nc(Nc2ccc3c(c2)CCN(CCS(C)(=O)=O)C3)nc2ccnn12` [Ex 40] reads 136 nM; that for `CC(C)S(=O)(=O)c1ccccc1Nc1nc(Nc2ccc3c(c2)CCNC3)nc2ccnn12` [Ex 41], 85 nM; that for `CC(C)S(=O)(=O)c1ccccc1Nc1nc(Nc2ccc3c(c2)CNCC3)nc2ccnn12` [Ex 42], 1020 nM.
The figure for `COc1cc(C2CCN(C(=O)CNC[C@@H](O)CO)CC2)c(C)cc1Nc1nc(Nc2ccccc2S(=O)(=O)C(C)C)n2nccc2n1` [Ex 43] is 150 nM; for `CN[C@H](C)C(=O)N1CCC(c2cc(OC)c(Nc3nc(Nc4ccccc4S(=O)(=O)C(C)C)n4nccc4n3)cc2C)CC1` [Ex 44] it is 18 nM; for `Cc1cc(C2CCN(CCS(C)(=O)=O)CC2)c(C)cc1Nc1nc(Nc2ccccc2S(=O)(=O)C(C)C)n2nccc2n1` [Ex 45] it is 62 nM.
The result for `Cc1cc(C2CCN(CCS(C)(=O)=O)CC2)ccc1Nc1nc(Nc2ccccc2S(=O)(=O)C(C)C)n2nccc2n1` [Ex 46] reads 31 nM.
For `Cc1cc(Nc2nc(Nc3ccccc3S(=O)(=O)C(C)C)n3nccc3n2)ccc1C1CCN(CCS(C)(=O)=O)CC1` [Ex 47], half-maximal inhibition (IC50) required 46 nM.
Compound `Cc1cc(C2CCN(C(=O)CCN(C)C)CC2)c(C)cc1Nc1nc(Nc2ccccc2S(=O)(=O)C(C)C)n2nccc2n1` [Ex 48] gave an IC50 of 59 nM.
The result for `Cc1cc(C2CCN(C(=O)CCN(C)C)CC2)ccc1Nc1nc(Nc2ccccc2S(=O)(=O)C(C)C)n2nccc2n1` [Ex 49] reads 129 nM.
The result for `COc1cc(C2CCN(C(=O)[C@@H]3C[C@@H](O)CN3C)CC2)c(C)cc1Nc1nc(Nc2ccccc2S(=O)(=O)C(C)C)n2nccc2n1` [Ex 50] reads 52 nM; that for `COc1cc(C2CCN(C(=O)[C@@H]3C[C@H](F)CN3)CC2)c(C)cc1Nc1nc(Nc2ccccc2S(=O)(=O)C(C)C)n2nccc2n1` [Ex 54], 42 nM; that for `COc1cc(C2CCN(C(=O)[C@@H]3C[C@H](O)CN3)CC2)c(C)cc1Nc1nc(Nc2ccccc2S(=O)(=O)C(C)C)n2nccc2n1` [Ex 55], 63 nM.
`COc1cc(C2CCN(C(=O)[C@H]3C[C@@H](O)CN3)CC2)c(C)cc1Nc1nc(Nc2ccccc2S(=O)(=O)C(C)C)n2nccc2n1` [Ex 56] had an IC50 of 79 nM.
The result for `COc1cc(C2CCN(C(=O)CNC(C)C)CC2)c(C)cc1Nc1nc(Nc2ccccc2S(=O)(=O)C(C)C)n2nccc2n1` [Ex 57] reads 32 nM; that for `COc1cc(C2CCN(C(=O)CNCCO)CC2)c(C)cc1Nc1nc(Nc2ccccc2S(=O)(=O)C(C)C)n2nccc2n1` [Ex 58], 86 nM; that for `COc1cc(C2CCN(C(=O)CN3CC(O)C3)CC2)c(C)cc1Nc1nc(Nc2ccccc2S(=O)(=O)C(C)C)n2nccc2n1` [Ex 59], 193 nM.
Compound `COc1cc(C2CCN(C(=O)CN3CC[C@@H](O)C3)CC2)c(C)cc1Nc1nc(Nc2ccccc2S(=O)(=O)C(C)C)n2nccc2n1` [Ex 60] had an IC50 of 31 nM.

The term IC50 denotes the concentration that inhibits the measured activity by half. A low value points to greater potency in that assay.
